Laboratory results: patent publication US7488751B2, “Antidepressant cycloalkylamine derivatives of 2,3-dihydro-1,4-benzodioxan” (Wyeth, priority 2002, dated 2009)

Key:
human 5-HT1A receptors = target: T1, human 5-HT1A receptors (Homo sapiens, UniProt P08908); experiment: [3H] 8-OHDPAT displacement from the 5-HT1A serotonin receptor (transfected CHO cells); format: binding; details: displacement of [3H] 8-OHDPAT; CHO cells stably transfected with human 5-HT1A receptors; read-out: 5-HT1A Receptor Affinity Ki
T1 construct: expressed in transfected cells; host or cells: CHO cells (stably transfected)
T1 sequence (P08908 1-422): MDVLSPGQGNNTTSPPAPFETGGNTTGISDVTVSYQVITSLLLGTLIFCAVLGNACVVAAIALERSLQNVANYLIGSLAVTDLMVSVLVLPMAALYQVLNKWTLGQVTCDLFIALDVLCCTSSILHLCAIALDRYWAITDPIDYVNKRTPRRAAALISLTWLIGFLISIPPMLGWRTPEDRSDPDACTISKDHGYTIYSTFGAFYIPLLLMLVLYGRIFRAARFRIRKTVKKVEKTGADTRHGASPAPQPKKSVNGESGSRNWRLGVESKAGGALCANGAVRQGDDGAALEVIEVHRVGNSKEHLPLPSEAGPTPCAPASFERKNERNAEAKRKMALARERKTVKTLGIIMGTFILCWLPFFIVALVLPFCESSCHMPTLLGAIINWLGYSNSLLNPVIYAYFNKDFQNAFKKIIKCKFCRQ
Description: High affinity for the serotonin 5-HT1A receptor was established by testing the claimed compound's ability to displace [^3H] 8-OHDPAT (dipropylaminotetralin) from the 5-HT1A serotonin receptor following a modification of the procedure of Hall et al., J. Neurochem. 44, 1685 (1985) which utilizes CHO cells stably transfected with human 5-HT1A receptors.

serotonin transporter = target: T2, serotonin transporter (Rattus norvegicus, UniProt P31652); experiment: 3H-paroxetine displacement, affinity for the serotonin transporter; format: binding; details: displacement of 3H-paroxetine from male rat frontal cortical membranes; read-out: 5-HT Transporter Affinity Ki
T2 construct: displace ^3H-paroxetine from male rat frontal cortical membranes; from tissue; host or cells: male rat frontal cortex membranes
T2 sequence (P31652 whole entry): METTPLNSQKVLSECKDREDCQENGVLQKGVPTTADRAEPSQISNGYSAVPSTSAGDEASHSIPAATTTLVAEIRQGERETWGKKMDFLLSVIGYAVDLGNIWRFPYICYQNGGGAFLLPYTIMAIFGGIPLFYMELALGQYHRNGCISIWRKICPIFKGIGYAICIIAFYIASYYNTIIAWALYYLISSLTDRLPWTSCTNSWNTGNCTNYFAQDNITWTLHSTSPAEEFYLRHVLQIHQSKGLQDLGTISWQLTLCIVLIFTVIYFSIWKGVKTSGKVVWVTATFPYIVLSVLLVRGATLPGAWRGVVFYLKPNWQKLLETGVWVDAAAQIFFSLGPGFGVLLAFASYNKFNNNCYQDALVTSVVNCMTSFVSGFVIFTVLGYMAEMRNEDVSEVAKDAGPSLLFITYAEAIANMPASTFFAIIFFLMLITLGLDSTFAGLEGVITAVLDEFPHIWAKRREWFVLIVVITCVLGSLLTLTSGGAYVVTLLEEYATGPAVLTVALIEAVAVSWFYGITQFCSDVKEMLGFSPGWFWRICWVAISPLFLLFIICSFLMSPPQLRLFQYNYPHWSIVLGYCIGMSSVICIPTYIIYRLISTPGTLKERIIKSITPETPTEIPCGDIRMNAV

[1] = target: T3, cloned human 5-HT1A receptors (Homo sapiens, UniProt P08908); experiment: 35S-GTPγS binding assay, 5-HT1A function; format: biochemical; details: for IC50: antagonist potency, reversal of effects of standard agonist 8-OHDPAT on 35S-GTPγS binding; for 5-HT1A Function (Imax): maximum inhibitory effect, 35S-GTPγS binding, reversal of 8-OHDPAT, unit assumed
T3 construct: expressed in transfected cells
T3 sequence (P08908 1-422): T1 sequence (P08908 1-422)
Description: Antagonist activity at 5-HT1A receptors was established by using a ^35S-GTPγS binding assay similar to that used by Lazareno and Birdsall (Br. J. Pharmacol. 109: 1120, 1993), in which the test compound's ability to affect the binding of ^35S-GTPγS to membranes containing cloned human 5-HT1A receptors was determined. Agonists produce an increase in binding whereas antagonists produce no increase but rather reverse the effects of the standard agonist 8-OHDPAT. The test compound's maximum inhibitory effect is represented as the Imax, while its potency is defined by the IC50.

[2] = target: T3, cloned human 5-HT1A receptors; experiment: 35S-GTPγS binding assay, 5-HT1A function; format: biochemical

Row | Compound | Ki (human 5-HT1A receptors) | Ki (serotonin transporter) | IC50 [1] | 5-HT1A Function (Imax) [1] | EC50 ([2]; given as EC50) | Emax ([2]; given as Emax)
1 | COc1cccc2c1O[C@@H](CN[C@H]1CC[C@H](c3cn(C)c4ccc(C#N)cc34)C1)CO2 (single isomer, unassigned) [Example 8-Isomer B] | 25.5 nM | 8 nM | – | – | – | –
2 | COc1cccc2c1O[C@@H](CN[C@H]1CC[C@H](c3c[nH]c4ccc(F)cc34)C1)CO2 (mixture of isomers) [Example 2, N-[(trans)-3-(5-fluoro-1H-indol-3-yl)cyclopentyl]-N-{[(2S)-8-methoxy-2,3 dihydro-1,4-benzodioxin-2-yl]methyl}amine] | 14.5 nM | 0.6 nM | 7 nM | 99% | – | –
3 | COc1cccc2c1O[C@@H](CN[C@@H]1CC[C@H](c3cn(C)c4ccc(C#N)cc34)C1)CO2 (single isomer, unassigned) [Example 8-Isomer A] | 12.6 nM | 6 nM | – | – | 23 nM | 64%
4 | COc1cccc2c1O[C@@H](CN[C@H]1CC[C@H](c3c[nH]c4ccc(F)cc34)C1)CO2 (single isomer, unassigned) [Example 2-Isomer A, N-[(1S*,3S*)-3-(5-fluoro-1H-indol-3-yl)cyclopentyl]-N-{[(2S)-8-methoxy-2,3-dihydro-1,4-benzodioxin-2-yl]methyl}amine] | 23.6 nM | 1 nM | 375 nM | 84% | – | –
5 | CCOc1cccc2c1O[C@@H](CN[C@H]1CC[C@H](c3c[nH]c4ccc(F)cc34)C1)CO2 (mixture of isomers) [Example 6, N-{[(2S)-8-ethoxy-2,3-dihydro-1,4-benzodioxin-2-yl]methyl}-N-[(trans)-3-(5-fluoro-1H-indol-3-yl)cyclopentyl]amine] | 25.2 nM | 0.43 nM | 359 nM | 25% | – | –
6 | COc1cccc2c1O[C@@H](CN[C@H]1CC[C@@H](c3cn(C)c4ccc(F)cc34)C1)CO2 (mixture of isomers) [Example 3, N-[(cis)-3-(5-fluoro-1-methyl-1H-indol-3-yl)cyclopentyl]-N-{[(2S)-8-methoxy-2,3-dihydro-1,4-benzodioxin-2-yl]methyl}amine] | 10.8 nM | 12 nM | 152 nM | 64% | – | –

Stronger by Ki (human 5-HT1A receptors), values ahead:

Row | Ki (human 5-HT1A receptors) | Ki (serotonin transporter) | IC50 [1] | 5-HT1A Function (Imax) [1] | EC50 ([2]; given as EC50) | Emax ([2]; given as Emax) | Compound
7 | 2.05 nM | 0.8 nM | 76 nM | 32% | – | – | COc1cccc2c1O[C@@H](CN[C@@H]1CC[C@@H](c3c[nH]c4ccc(F)cc34)C1)CO2 (single isomer, unassigned) [Example 2-Isomer B, N-[(1R*,3R*)-3-(5-fluoro-1H-indol-3-yl)cyclopentyl]-N-{[(2S)-8-methoxy-2,3-dihydro-1,4-benzodioxin-2-yl]methyl}amine]
8 | 8.09 nM | 0.6 nM | 105 nM | 48% | – | – | CCOc1cccc2c1O[C@@H](CN[C@H]1CC[C@@H](c3c[nH]c4ccc(F)cc34)C1)CO2 (mixture of isomers) [Example 5, N-{[(2S)-8-ethoxy-2,3-dihydro-1,4-benzodioxin-2-yl]methyl}-N-[(cis)-3-(5-fluoro-1H-indol-3-yl)cyclopentyl]amine]
9 | 7.52 nM | 1.28 nM | 30 nM | 78% | – | – | COc1cccc2c1O[C@@H](CN[C@@H]1CC[C@H](c3c[nH]c4ccc(F)cc34)C1)CO2 (single isomer, unassigned) [Example 1-Isomer A, N-[(1R*,3S*)-3-(5-fluoro-1H-indol-3-yl)cyclopentyl]-N-{[(2S)-8-methoxy-2,3-dihydro-1,4-benzodioxin-2-yl]methyl}amine]
10 | 3.61 nM | 1.92 nM | 22 nM | 100% | – | – | COc1cccc2c1O[C@@H](CN[C@H]1CC[C@@H](c3c[nH]c4ccc(F)cc34)C1)CO2 (single isomer, unassigned) [Example 1-Isomer B, N-[(1S*,3R*)-3-(5-fluoro-1H-indol-3-yl)cyclopentyl]-N-{[(2S)-8-methoxy-2,3-dihydro-1,4-benzodioxin-2-yl]methyl}amine]
11 | 3.02 nM | 3.86 nM | 53 nM | 79% | – | – | COc1cccc2c1O[C@@H](CN[C@H]1CC[C@H](c3cn(C)c4ccc(F)cc34)C1)CO2 (mixture of isomers) [Example 4, N-[(trans)-3-(5-fluoro-1-methyl-1H-indol-3-yl)cyclopentyl]-N-{[(2S)-8-methoxy-2,3-dihydro-1,4-benzodioxin-2-yl]methyl}amine]
12 | 5.29 nM | 0.64 nM | – | – | – | – | COc1cccc2c1O[C@@H](CN[C@@H]1CC[C@H](c3c[nH]c4ccc(C#N)cc34)C1)CO2 (single isomer, unassigned) [Example 7-Isomer A]
13 | 5.82 nM | 1.07 nM | 55 nM | 100% | – | – | COc1cccc2c1OC(CNC1CCC(c3c[nH]c4ccc(F)cc34)C1)CO2 [Example 1, N-[(cis)-3-(5-fluoro-1H-indol-3-yl)cyclopentyl]-N-{([(2S)-8-methoxy-2,3-dihydro-1,4-benzodioxin-2-yl]methyl}amine]
14 | 9.62 nM | 0.57 nM | 24 nM | 56% | – | – | COc1cccc2c1O[C@@H](CN[C@H]1CC[C@H](c3c[nH]c4ccc(C#N)cc34)C1)CO2 (single isomer, unassigned) [Example 7-Isomer B]
